{"source": "patent US20260166121A1", "about": "“COMPOSITIONS AND METHODS FOR THE TREATMENT OF HEMORRHAGIC SHOCK” (Children's Hospital Medical Center, priority 2022, published 2026)", "tested_on": "AMPKα1 wild-type (WT) and knockout (KO) mice", "test": "Survival analysis up to 7 days after hemorrhagic shock", "assay_type": "in vivo", "conditions": "100 μg/kg intra-arterially at resuscitation, subcutaneously at 24 h and 48 h, compared to vehicle treatment", "protocol": "Preparation of PEGylated humanin-G and survival analysis. In separate groups of mice survival studies were conducted. For these studies, we generated a longer-acting humanin-G by covalent conjugation of polyethylene glycol (PEG). Briefly, humanin-G was conjugated (1:1 molar ratio) to generate a non-cleavable PEGylated humanin-G. Humanin-G was dissolved in phosphate-buffered saline, pH 7.4, with 5 mM EDTA and mixed at room temperature with an equal volume of DMSO containing PEG-maleimide and left overnight (26). The product, PEGylated humanin-G (PEG10 kDa) was purified by size-exclusion chromatography with a 50 mM ammonium acetate buffer. Mice were subjected to hemorrhagic shock as described above. Mice received PEGylated humanin-G (100 μg/kg, intra-arterially) as a single dose at 90 minutes after blood removal at the time of resuscitation. Three hours after resuscitation, the femoral artery was occluded, and the skin incision was closed in layers. Mice were then allowed to awaken from anesthesia. Mice then received a second and a third dose of PEGylated humanin-G (100 μg/kg, subcutaneously) at 24 hours and 48 hours thereafter. Mice also received further fluid resuscitation (0.5 mL of Lactated Ringer's solution subcutaneously) at 6 hours and 24 hours following hemorrhagic shock. […] Mice were then monitored for survival for 7 days. […]", "note": "Ends that are not written are not given here."}
{"substance": "PEGylated humanin-G: non-cleavable PEGylated humanin-G, humanin-G conjugated 1:1 molar ratio with PEG-maleimide (PEG10 kDa) (MAPRGFSCLLLLTGEIDLPVKRRA; not fully specified (residue 8); also: PEG 10 kDa maleimide conjugate, attachment site not given here; UniProt Q8IVG9 1-24, looked up, variant S14G)", "values": [{"measurement": "survival", "value": "significantly ameliorated"}]}
